According to PMC7464559, “Synthesis, Optimization, Antifungal Activity, Selectivity, and CYP51 Binding of New 2-Aryl-3-azolyl-1-indolyl-propan-2-ols” (Pharmaceuticals, 2020):
Values after ≈ are worked out from the molar mass of the structure shown.

Legend:
C. albicans CA98001 = experiment: Anti-Candida in vitro assay (Alamar Blue), C. albicans CA98001; format: cell-based; details: for MIC: Candida albicans, CA98001, 24 h
Protocol: (§1) Test fungal strains were obtained from the American Type Culture Collection (ATCC) or were clinical isolates from the Laboratory of Parasitology and Medical Mycology, Centre Hospitalier Universitaire (CHU) of Nantes. The strains were maintained on Sabouraud agar slants and were subcultured 24 h before used. The activity of the target compounds 8a–g and 11a–m was determined by the method previously described. Briefly, molecules were diluted in RPMI 1640 medium supplemented with 0.165 M morpholinopropanesulphonic acid (Sigma-Aldrich, Saint-Quentin Fallavier, France), 2% glucose, and antibiotics. Candida suspensions were prepared in RPMI 1640 medium (Sigma-Aldrich, Saint-Quentin Fallavier, France) adjusted to give a final concentration of 10^3 cells/mL, and a 96-well microplate (Nunc, D. Dutscher, Brumath, France) was seeded with 100 µL. Each concentration of molecules (100 µL) to be tested was added (in triplicate) and plates were incubated at 37 °C for 24 h. The cellular viability was evaluated on the Fluorolite 1000 (Dynatech, France) with an excitation at 550 nm and an emission at 590 nm after a 4 h incubation with 10 µL of Alamar Blue®. […] MIC was expressed as the mean of the triplicate values. KTC and FLC were used as standards.

[1] = system: ATCC2091 Candida albicans strain; experiment: Anti-Candida in vitro assay, ATCC2091; format: cell-based; details: Candida albicans ATCC2091, mean of triplicate; read-out: MIC (IC80) ATCC2091
Protocol: as §1

[2] = system: CA98002 (Candida albicans); experiment: Anti-Candida in vitro assay, CA98002; format: cell-based; details: Candida albicans CA98002, mean of triplicate; read-out: MIC (IC80) CA98002
Protocol: as §1

[3] = system: CA98005 (Candida albicans); experiment: Anti-Candida in vitro assay, CA98005; format: cell-based; details: Candida albicans CA98005, mean of triplicate; read-out: MIC (IC80) CA98005
Protocol: as §1

[4] = system: ATCC6258 Candida krusei strain; experiment: Anti-Candida in vitro assay, ATCC6258; format: cell-based; details: Pichia kudriavzevii; Candida krusei ATCC6258, mean of triplicate; read-out: MIC (IC80) ATCC6258
Protocol: as §1

CK98002 (Candida krusei) = experiment: Anti-Candida in vitro assay, CK98002; format: cell-based; details: Pichia kudriavzevii; Candida krusei CK98002, mean of triplicate; read-out: MIC (IC80) CK98002
Protocol: as §1

CK98003 (Candida krusei) = experiment: Anti-Candida in vitro assay, CK98003; format: cell-based; details: Pichia kudriavzevii; Candida krusei CK98003, mean of triplicate; read-out: MIC (IC80) CK98003
Protocol: as §1

[5] = system: CL98001 (Candida lusitaniae); experiment: Anti-Candida in vitro assay, CL98001; format: cell-based; details: Clavispora lusitaniae; Candida lusitaniae CL98001, mean of triplicate; read-out: MIC (IC80) CL98001
Protocol: as §1

[6] = system: ATCC90018 Candida parapsilosis strain; experiment: Anti-Candida in vitro assay, ATCC90018; format: cell-based; details: Lodderomyces parapsilosis; Candida parapsilosis ATCC90018, mean of triplicate; read-out: MIC (IC80) ATCC90018
Protocol: as §1

MRC5 toxicity assay = format: cell-based, human; details: human, MRC-5 human fetal lung fibroblast cells, MRC-5 cells, 96-h incubation, mean of triplicate; read-out: Cytotoxicity IC50 on MRC-5 cells
Protocol: The cytotoxicity of compounds was studied with human fibroblast (MRC5). Cells were grown in RPMI 1640 medium (Sigma-Aldrich, Saint-Quentin Fallavier, France) supplemented with 10% fetal bovin serum (Sigma–Aldrich). Drugs were tested at three concentrations (100, 10, and 1 µM) in triplicate. After a 96-h incubation time, cytotoxicity was measured on the Fluorolite 1000 (Dynatech, Guyancourt, France) after a 4-h incubation time with Uptiblue® (Interchim, Montluçon, France). Inhibitory concentration 50 is a mean of triplicate values. A toxicity index was determined as follow: IC50 against MRC5/Geometric mean of the MICs against Candida spp..

[7] = MIC = IC80, 24 h at 37 °C, mean of triplicate

Compound	MIC (C. albicans CA98001; [7])	MIC [1]	MIC [2]	MIC [3]	MIC [4]	MIC (CK98002 (Candida krusei))	MIC (CK98003 (Candida krusei))	MIC [5]	MIC [6]	melting point	MIC (= IC80) C. albicans CA98001 (C. albicans CA98001; [7])	IC50 at 96 h (MRC5 toxicity assay)	Times more active than FLC against C. albicans CA98001 (C. albicans CA98001; ratio of MIC values versus FLC)
OC(Cn1ccnc1)(Cn1ccc2ccccc21)c1ccc(C(F)(F)F)cc1 (stereo not drawn) [Compound 11e, 1-(1H-Imidazol-1-yl)-3-(1H-indol-1-yl)-2-(4-trifluoromethylphenyl)propan-2-ol]	0.23 µg/mL (≈ 0.597 µM)	2.12 µg/mL (≈ 5.5 µM)	0.32 µg/mL (≈ 0.83 µM)	0.258 µg/mL (≈ 0.669 µM)	22.1 µg/mL (≈ 57.4 µM)	18.3 µg/mL (≈ 47.5 µM)	16.2 µg/mL (≈ 42.1 µM)	0.173 µg/mL (≈ 0.449 µM)	2.47 µg/mL (≈ 6.4 µM)	246 to 247 °C		36 µM	
Cc1c(C)n(CC(O)(Cn2cncn2)c2ccc(F)cc2F)c2ccccc12 (stereo not drawn) [Compound 11j, 2-(2,4-Difluorophenyl)-3-(2,3-dimethyl-1H-indol-1-yl)-1-(1H-1,2,4-triazol-1-yl)propan-2-ol]	0.157 µg/mL (≈ 0.411 µM)	0.256 µg/mL (≈ 0.669 µM)	0.382 µg/mL (≈ 0.999 µM)	2.41 µg/mL (≈ 6.3 µM)	18 µg/mL (≈ 47 µM)	11.5 µg/mL (≈ 30 µM)	13.9 µg/mL (≈ 36.4 µM)	0.256 µg/mL (≈ 0.669 µM)	4.01 µg/mL (≈ 10.5 µM)	102 to 103 °C		25 µM	
OC(Cn1cncn1)(Cn1ccc2ccccc21)c1ccc(F)cc1 (stereo not drawn) [Compound 11a, 2-(4-Fluorophenyl)-3-(1H-indol-1-yl)-1-(1H-1,2,4-triazol-1-yl)propan-2-ol]	0.21 µg/mL (≈ 0.624 µM)	0.437 µg/mL (≈ 1.3 µM)	0.404 µg/mL (≈ 1.2 µM)	0.437 µg/mL (≈ 1.3 µM)	19.2 µg/mL (≈ 57.2 µM)	21.4 µg/mL (≈ 63.7 µM)	18.7 µg/mL (≈ 55.5 µM)	0.259 µg/mL (≈ 0.77 µM)	2.52 µg/mL (≈ 7.5 µM)	190 to 191 °C	0.21 µg/mL (≈ 0.624 µM)	> 100 µM	
OC(Cn1ccnn1)(Cn1ccc2ccccc21)c1ccc(Cl)cc1Cl (stereo not drawn) [Compound 11l, 2-(2,4-Dichlorophenyl)-3-(1H-indol-1-yl)-1-(1H-1,2,3-triazol-1-yl)propan-2-ol]	> 100 µg/mL									210 to 211 °C			
OC(Cn1nccn1)(Cn1ccc2ccccc21)c1ccc(Cl)cc1Cl (stereo not drawn) [Compound 11m, 2-(2,4-Dichlorophenyl)-3-(1H-indol-1-yl)-1-(2H-1,2,3-triazol-2-yl)propan-2-ol]	> 100 µg/mL									159 to 161 °C			

Now those with a lower MIC (C. albicans CA98001; [7]), led by results:

MIC (C. albicans CA98001; [7])	MIC [1]	MIC [2]	MIC [3]	MIC [4]	MIC (CK98002 (Candida krusei))	MIC (CK98003 (Candida krusei))	MIC [5]	MIC [6]	melting point	MIC (= IC80) C. albicans CA98001 (C. albicans CA98001; [7])	Compound	IC50 at 96 h (MRC5 toxicity assay)	Times more active than FLC against C. albicans CA98001 (C. albicans CA98001; ratio of MIC values versus FLC)
0.0058 µg/mL (≈ 0.0145 µM)	0.526 µg/mL (≈ 1.31 µM)	0.321 µg/mL (≈ 0.8 µM)	0.269 µg/mL (≈ 0.67 µM)	> 40 µg/mL	> 40 µg/mL	> 40 µg/mL	0.181 µg/mL (≈ 0.451 µM)	> 40 µg/mL	170 to 171 °C		Cc1cc2ccccc2n1CC(O)(Cn1cncn1)c1ccc(Cl)cc1Cl (stereo not drawn) [Compound 11g, 2-(2,4-Dichlorophenyl)-3-(2-methyl-1H-indol-1-yl)-1-(1H-1,2,4-triazol-1-yl)propan-2-ol]	157 µM	
0.00035 µg/mL (≈ 0.00099 µM)	0.726 µg/mL (≈ 2.05 µM)	0.609 µg/mL (≈ 1.72 µM)	0.439 µg/mL (≈ 1.24 µM)	3.86 µg/mL (≈ 10.9 µM)	5.69 µg/mL (≈ 16.1 µM)	5.21 µg/mL (≈ 14.7 µM)	0.068 µg/mL (≈ 0.192 µM)	0.614 µg/mL (≈ 1.74 µM)	166 to 168 °C		OC(Cn1ccnc1)(Cn1ccc2ccccc21)c1ccc(F)cc1F (stereo not drawn) [Compound 8d, 2-(2,4-Difluorophenyl)-1-(1H-imidazol-1-yl)-3-(1H-indol-1-yl)propan-2-ol]	34 µM	57
0.007 µg/mL (≈ 0.0174 µM)	0.026 µg/mL (≈ 0.0648 µM)	0.044 µg/mL (≈ 0.11 µM)	0.03 µg/mL (≈ 0.0748 µM)	3.01 µg/mL (≈ 7.5 µM)	0.803 µg/mL (≈ 2 µM)	1.69 µg/mL (≈ 4.2 µM)	0.025 µg/mL (≈ 0.0623 µM)	0.245 µg/mL (≈ 0.611 µM)	161 to 162 °C		Cc1cn(CC(O)(Cn2cncn2)c2ccc(Cl)cc2Cl)c2ccccc12 (stereo not drawn) [Compound 11i, 2-(2,4-Dichlorophenyl)-3-(3-methyl-1H-indol-1-yl)-1-(1H-1,2,4-triazol-1-yl)propan-2-ol]	19 µM	
